Results on 1 compound are retold here after patent US20230094753A1, “NANOSTRUCTURE LIPID CARRIER DELIVERY SYSTEM, COMPOSITION, AND METHODS” (priority 2020, published 2023).

The nature of this data set: CBD solubility in lipid excipients (about 0.345 g CBD exposed to 10 ml lipid). In kind it is physicochemical. The following applies: approx. 0.345 g CBD in 10 ml. As for the experimental part:
Approximately 0.345 g of CBD was exposed to 10 ml of the listed lipid and solubility was assessed.

Take `C=C(C)[C@@H]1CCC(C)=C[C@H]1c1c(O)cc(CCCCC)cc1O` [CBD, cannabidiol]: the SOLUBILITY entry (solvent 1: Apricot Kernel Oil PEG-6 Esters) is “Medium CBD Solubility”; the SOLUBILITY entry (solvent 2: Corn Oil PEG-6 Ester) is listed as “Medium CBD Solubility”; the SOLUBILITY entry (solvent 3: Ethoxydiglycol) is given as “Stability Problematic”; the SOLUBILITY result (solvent 4: Glycerine soja (Soyean) oil (and) Glyceryl Distearate (and) Polyglyceryl-3 Dioleate) was “Medium CBD Solubility”; the SOLUBILITY entry (solvent 5: Glyceryl Linoleate) was “Bad CBD Solubility”; the SOLUBILITY entry (solvent 6: Glyceryl Oleate) is on record as “Bad CBD Solubility”. Moreover, the SOLUBILITY result is “Stability Problematic” (solvent 7: PEG-8 Caprylic/Capric Glycerides); “Bad CBD Solubility” (solvent 8: Polyglyceryl-3-diolate); “Good CBD Solubility” (solvent 9: Propylene Glycol Caprate); “Medium CBD Solubility” (solvent 10: Propylene Glycol Laurate); “Medium CBD Solubility” (solvent 13: PEG-8); “Medium CBD Solubility” (solvent 18: Caprylic/Capric Triglyceride). Besides, the SOLUBILITY entry is “Good CBD Solubility” (solvent 19: PEG-8 Carylic/Capric Glycerides); “Medium CBD Solubility” (solvent 20: Glyceryl Caprylate/Caprate); “Good CBD Solubility” (solvent 21: Propylene Glycol Monocaprylate); “Bad CBD Solubility” (solvent 22: Olea Europaea (Olive) Oil); “Medium CBD Solubility” (solvent 23: Glycine Soja (Soybean) Oil).
